Test results taken from patent US20240034731A1, “AZA-QUINAZOLINE COMPOUNDS AND METHODS OF USE” (Iambic Therapeutics, Inc., priority 2022, published 2024).
Read-outs that look alike come from different tables or passages of the source.

Assays:
CDK1/Cyclin B1 = CDK1/Cyclin B1 (Homo sapiens (Human), UniProt P06493); test: CDK1/Cyclin B1 ADP-Glo Kinase Assay; assay type: biochemical
In short: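 ADP-Glo luminescent readout of ADP production, with IC50 fitted by a four-parameter equation to fractional velocity against inhibitor concentration. Reaction started with ATP-containing substrate after a 30-minute enzyme–inhibitor pre-incubation and stopped after 90 minutes, both at room temperature.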

CDK2/Cyclin E1 = CDK2/Cyclin E1 (Homo sapiens (Human), UniProt P24941); test: CDK2/Cyclin E1 Full length ADP-Glo Kinase Assay; assay type: biochemical; details: 20 uM ATP, read-out: CDK2/ CyclinE1 IC50
In short: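 ADP-Glo luminescence (ATP depletion, then ADP-to-light conversion) quantified kinase turnover after a 90 min room-temperature reaction started by ATP/substrate, following 30 min enzyme–inhibitor preincubation. Enzyme: full-length CDK2/cyclin E1; IC50 fitted with a four-parameter equation on fractional velocity.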

CDK4/Cyclin D1 = CDK4/Cyclin D1 (Homo sapiens (Human), UniProt P11802); test: CDK4/Cyclin D1 CHEF Assay (AQT0258 peptide); assay type: biochemical; details: 200 uM ATP, read-out: CDK4/ CyclinD1 AQT IC50
Chain of CDK4/Cyclin D1 (P11802 whole entry): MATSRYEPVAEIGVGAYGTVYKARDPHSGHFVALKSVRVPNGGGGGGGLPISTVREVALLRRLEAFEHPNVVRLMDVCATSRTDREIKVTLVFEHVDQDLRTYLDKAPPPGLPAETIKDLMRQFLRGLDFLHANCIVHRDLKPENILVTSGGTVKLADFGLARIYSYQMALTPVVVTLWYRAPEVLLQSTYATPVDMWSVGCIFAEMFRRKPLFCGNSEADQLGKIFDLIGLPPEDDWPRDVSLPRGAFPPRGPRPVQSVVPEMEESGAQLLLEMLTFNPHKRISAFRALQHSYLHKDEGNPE
Chain of CDK4/Cyclin D1 (P24385 whole entry partner): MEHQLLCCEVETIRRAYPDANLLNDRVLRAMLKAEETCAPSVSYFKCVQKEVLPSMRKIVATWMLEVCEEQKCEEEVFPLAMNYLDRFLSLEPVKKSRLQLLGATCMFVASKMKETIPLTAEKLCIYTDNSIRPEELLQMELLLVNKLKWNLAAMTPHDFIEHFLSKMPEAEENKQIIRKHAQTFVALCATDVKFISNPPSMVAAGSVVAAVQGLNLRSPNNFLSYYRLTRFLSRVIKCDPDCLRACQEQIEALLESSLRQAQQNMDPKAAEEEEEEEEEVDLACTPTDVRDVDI
In short: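 Sox-labelled peptide AQT0258 phosphorylation read as chelation-enhanced fluorescence (ex 360/em 485 nm) with Mg(II). Enzyme preincubated with inhibitor 30 min at 22°C, substrate added, 3 h at 22°C; IC50 from four-parameter fit of fractional velocity versus inhibitor concentration.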

CDK6/Cyclin D3 = CDK6/Cyclin D3 (Homo sapiens (Human), UniProt Q00534); test: CDK6/Cyclin D3 ADP-Glo Kinase Assay; assay type: biochemical; details: 100 uM ATP, read-out: CDK6/ CyclinD3 IC50
Chain of CDK6/Cyclin D3 (Q00534 whole entry): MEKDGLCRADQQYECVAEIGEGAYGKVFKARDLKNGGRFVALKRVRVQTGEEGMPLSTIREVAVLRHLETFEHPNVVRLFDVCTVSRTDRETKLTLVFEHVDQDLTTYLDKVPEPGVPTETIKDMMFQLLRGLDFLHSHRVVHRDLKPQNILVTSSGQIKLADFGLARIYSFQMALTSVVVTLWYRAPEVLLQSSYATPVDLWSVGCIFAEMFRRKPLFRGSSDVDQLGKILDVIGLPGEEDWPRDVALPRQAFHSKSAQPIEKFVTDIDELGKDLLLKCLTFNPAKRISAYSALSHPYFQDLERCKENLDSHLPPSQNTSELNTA
Chain of CDK6/Cyclin D3 (P30281 whole entry partner): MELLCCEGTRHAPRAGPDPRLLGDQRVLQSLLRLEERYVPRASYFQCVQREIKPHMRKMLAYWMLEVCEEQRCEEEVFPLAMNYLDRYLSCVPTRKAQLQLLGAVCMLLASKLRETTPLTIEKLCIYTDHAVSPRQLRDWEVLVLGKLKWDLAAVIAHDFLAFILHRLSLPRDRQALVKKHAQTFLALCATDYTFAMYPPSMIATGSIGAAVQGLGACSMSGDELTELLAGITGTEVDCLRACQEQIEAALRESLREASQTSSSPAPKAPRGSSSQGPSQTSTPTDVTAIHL
In short: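 ADP-Glo luminescence measured ADP produced by CDK6/Cyclin D3 in a 90-min room-temperature reaction started with ATP-containing substrate, after 30-min enzyme–inhibitor pre-incubation. Fractional velocity was plotted against inhibitor concentration and fitted to a four-parameter IC50 model.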

MCF-7 cells = test: Cell Growth Inhibition, MCF-7 (CellTiterGlo, 6 days); assay type: cell-based; details: Homo sapiens, MCF7, 144 h, MCF-7, 6-day treatment
In short: (§1)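 IC50 from four-parameter, variable-slope fits of % growth inhibition, derived from CellTiterGlo 2.0 luminescence relative to control. Compounds, usually 10-10,000 nM in half-log steps, stayed 6 days at 37 °C, 5% CO2 with 500 MCF-7 or OVCAR-3 cells/well in 10% FBS RPMI.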

OVCAR-3 cells = test: Cell Growth Inhibition, OVCAR-3 (CellTiterGlo, 6 days); assay type: cell-based; details: Homo sapiens, 144 h, OVCAR-3, 6-day treatment
In short: as §1

[1] = ADP-Glo, 80 uM ATP, read-out: CDK1 Cyclin B1 IC50

Chain of CDK1/Cyclin B1 (P06493 whole entry): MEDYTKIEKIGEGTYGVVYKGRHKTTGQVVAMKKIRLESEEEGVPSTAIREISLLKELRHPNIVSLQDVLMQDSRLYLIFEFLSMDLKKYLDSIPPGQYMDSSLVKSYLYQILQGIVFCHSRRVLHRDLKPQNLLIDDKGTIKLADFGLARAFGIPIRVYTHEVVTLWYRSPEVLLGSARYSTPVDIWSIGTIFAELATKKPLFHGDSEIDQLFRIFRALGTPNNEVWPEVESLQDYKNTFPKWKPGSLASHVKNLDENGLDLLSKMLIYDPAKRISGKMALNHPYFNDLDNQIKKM
Chain of CDK1/Cyclin B1 (P14635 whole entry partner): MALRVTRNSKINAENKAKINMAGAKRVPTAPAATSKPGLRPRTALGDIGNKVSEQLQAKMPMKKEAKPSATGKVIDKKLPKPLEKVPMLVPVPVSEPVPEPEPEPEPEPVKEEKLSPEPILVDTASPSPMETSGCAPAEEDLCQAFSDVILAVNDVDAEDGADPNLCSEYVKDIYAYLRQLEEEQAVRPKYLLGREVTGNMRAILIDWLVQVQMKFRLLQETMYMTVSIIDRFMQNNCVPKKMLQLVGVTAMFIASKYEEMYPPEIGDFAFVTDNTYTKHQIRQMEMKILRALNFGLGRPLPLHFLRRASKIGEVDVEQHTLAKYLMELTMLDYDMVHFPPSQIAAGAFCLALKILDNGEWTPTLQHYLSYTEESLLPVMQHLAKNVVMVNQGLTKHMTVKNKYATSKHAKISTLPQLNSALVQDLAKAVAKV

Row | SMILES | IC50 (CDK1/Cyclin B1; [1]) | IC50 (CDK2/Cyclin E1) | IC50 (CDK4/Cyclin D1) | IC50 (CDK6/Cyclin D3) | IC50 (MCF-7 cells) | IC50 (OVCAR-3 cells) | IC50 (CDK1/Cyclin B1)
1 | Cc1cc2cnc(Nc3ccc(N4CC5(CN(C)C5)C4)cc3)nc2c(N2CCC(C#N)(C3CC3)C2)n1 (stereo not drawn) [Compound 28, 3-cyclopropyl-1-(6-methyl-2-((4-(6-methyl-2,6-diazaspiro[3.3]heptan-2-yl)phenyl)amino)pyrido[3,4-d]pyrimidin-8-yl)pyrrolidine-3-carbonitrile] | 0.5 to 2 µM | < 0.2 µM | < 0.2 µM | < 0.2 µM | 0.5 to 2 µM | 0.5 to 2 µM | –
2 | Cc1cc2cnc(NC3CCN(S(C)(=O)=O)CC3)nc2c(N2CC3(CCC(=O)N3)C2)n1 [Compound 77, 2-(6-methyl-2-((1-(methylsulfonyl)piperidin-4-yl)amino)pyrido[3,4-d]pyrimidin-8-yl)-2,5-diazaspiro[3.4]octan-6-one] | 0.2 to 0.5 µM | < 0.2 µM | < 0.2 µM | < 0.2 µM | > 2 µM | > 2 µM | –
3 | Cc1cc2cnc(Nc3ccc4c(c3)CN(C3CC3)C4)nc2c(N2CC3(CCNC3)C2)n1 [Compound 47, N-(2-cyclopropylisoindolin-5-yl)-6-methyl-8-(2,6-diazaspiro[3.4]octan-2-yl)pyrido[3,4-d]pyrimidin-2-amine] | 0.5 to 2 µM | < 0.2 µM | < 0.2 µM | < 0.2 µM | 0.5 to 2 µM | 0.5 to 2 µM | –
4 | CS(=O)(=O)N1CCC(Nc2ncc3cc(C(F)F)nc(N4CC5(CCNCC5(F)F)C4)c3n2)CC1 [Compound 90, 8-(5,5-difluoro-2,7-diazaspiro[3.5]nonan-2-yl)-6-(difluoromethyl)-N-(1-(methylsulfonyl)piperidin-4-yl)pyrido[3,4-d]pyrimidin-2-amine] | < 0.2 µM | < 0.2 µM | < 0.2 µM | < 0.2 µM | 0.5 to 2 µM | 0.5 to 2 µM | –
5 | Cc1cc2cnc(Nc3cc4c(cc3F)CN(S(C)(=O)=O)C4)nc2c(N2CC3(CNC3)C2)n1 [Compound 37, N-(6-fluoro-2-(methylsulfonyl)isoindolin-5-yl)-6-methyl-8-(2,6-diazaspiro[3.3]heptan-2-yl)pyrido[3,4-d]pyrimidin-2-amine] | > 2 µM | 0.2 to 0.5 µM | > 2 µM | > 2 µM | > 2 µM | > 2 µM | –
6 | CCS(=O)(=O)N1CCC(Nc2ncc3cc(C)nc(N4CC(F)(F)C5(CNC5)C4)c3n2)CC1 [Compound 95, 8-(8,8-difluoro-2,6-diazaspiro[3.4]octan-6-yl)-N-(1-(ethylsulfonyl)piperidin-4-yl)-6-methylpyrido[3,4-d]pyrimidin-2-amine] | < 0.2 µM | < 0.2 µM | < 0.2 µM | < 0.2 µM | 0.5 to 2 µM | 0.5 to 2 µM | –
7 | Cc1cc2cnc(NC3CCN(S(=O)(=O)C4(C)CC4)CC3)nc2c(C2CC(C)(O)C2)n1 (stereo not drawn) [Compound 63, 1-methyl-3-(6-methyl-2-((1-((1-methylcyclopropyl)sulfonyl)piperidin-4-yl)amino)pyrido[3,4-d]pyrimidin-8-yl)cyclobutan-1-ol] | > 2 µM | 0.2 to 0.5 µM | 0.5 to 2 µM | > 2 µM | > 2 µM | > 2 µM | –
8 | Cc1cc2cnc(NC3CCN(S(=O)(=O)c4cnn(C)c4)CC3)nc2c(N2CC(F)(F)C3(CN(C)C3)C2)n1 [Compound 97, 8-(8,8-difluoro-2-methyl-2,6-diazaspiro[3.4]octan-6-yl)-6-methyl-N-(1-((1-methyl-1H-pyrazol-4-yl)sulfonyl)piperidin-4-yl)pyrido[3,4-d]pyrimidin-2-amine] | – | < 0.2 µM | < 0.2 µM | < 0.2 µM | 0.5 to 2 µM | 0.2 to 0.5 µM | < 0.2 µM
9 | Cc1cc2cnc(NC3CCN(S(=O)(=O)C4CC4)CC3)nc2c(N2CC(N3CC(F)C3)C2)n1 [Compound 72, N-(1-(cyclopropylsulfonyl)piperidin-4-yl)-8-(3-fluoro-[1,3′-biazetidin]-l′-yl)-6-methylpyrido[3,4-d]pyrimidin-2-amine] | 0.5 to 2 µM | < 0.2 µM | 0.2 to 0.5 µM | 0.2 to 0.5 µM | > 2 µM | > 2 µM | –
10 | CS(=O)(=O)N1CCC(Nc2ncc3cc(C4CC4)nc(N4CC(F)(F)C5(CNC5)C4)c3n2)CC1 [Example 60, 6-cyclopropyl-8-(8,8-difluoro-2,6-diazaspiro[3.4]octan-6-yl)-N-(1-(methylsulfonyl)piperidin-4-yl)pyrido[3,4-d]pyrimidin-2-amine] | < 0.2 µM | < 0.2 µM | < 0.2 µM | < 0.2 µM | 0.5 to 2 µM | > 2 µM | –
11 | Cc1cc2cnc(NC3CCN(S(C)(=O)=O)CC3)nc2c(C2CC(O)(C(F)F)C2)n1 (stereo not drawn) [Compound 93, 1-(difluoromethyl)-3-(6-methyl-2-((1-(methylsulfonyl)piperidin-4-yl)amino)pyrido[3,4-d]pyrimidin-8-yl)cyclobutan-1-ol] | < 0.2 µM | < 0.2 µM | < 0.2 µM | < 0.2 µM | 0.5 to 2 µM | 0.5 to 2 µM | –
12 | Cc1cc2cnc(NC3CCN(S(=O)(=O)c4cnn(C)c4)CC3)nc2c(N2CC(F)(F)C3(CNC3)C2)n1 [Compound 89, 8-(8,8-difluoro-2,6-diazaspiro[3.4]octan-6-yl)-6-methyl-N-(1-((1-methyl-1H-pyrazol-4-yl)sulfonyl)piperidin-4-yl)pyrido[3,4-d]pyrimidin-2-amine] | < 0.2 µM | < 0.2 µM | < 0.2 µM | < 0.2 µM | 0.5 to 2 µM | 0.2 to 0.5 µM | –
13 | Cc1cc2cnc(NC3CCN(S(C)(=O)=O)CC3)nc2c(C2CC3(C2)CN(C)CCO3)n1 (stereo not drawn) [Compound 84, 6-methyl-8-(8-methyl-5-oxa-8-azaspiro[3.5]nonan-2-yl)-N-(1-(methylsulfonyl)piperidin-4-yl)pyrido[3,4-d]pyrimidin-2-amine] | 0.2 to 0.5 µM | < 0.2 µM | < 0.2 µM | < 0.2 µM | 0.5 to 2 µM | 0.5 to 2 µM | –
14 | Cc1cc2cnc(NC3CCN(S(=O)(=O)C4CC4)CC3)nc2c(N2CC3(CCNCC3(F)F)C2)n1 [Compound 61, N-(1-(cyclopropylsulfonyl)piperidin-4-yl)-8-(5,5-difluoro-2,7-diazaspiro[3.5]nonan-2-yl)-6-methylpyrido[3,4-d]pyrimidin-2-amine] | < 0.2 µM | < 0.2 µM | < 0.2 µM | < 0.2 µM | 0.5 to 2 µM | 0.5 to 2 µM | –
15 | Cc1cc2cnc(NC3CCN(S(=O)(=O)C4CC4)CC3)nc2c(N2CC3(C2)CC(C)(O)C3)n1 [Compound 78, 2-(2-((1-(cyclopropylsulfonyl)piperidin-4-yl)amino)-6-methylpyrido[3,4-d]pyrimidin-8-yl)-6-methyl-2-azaspiro[3.3]heptan-6-ol] | 0.2 to 0.5 µM | < 0.2 µM | < 0.2 µM | 0.2 to 0.5 µM | 0.5 to 2 µM | 0.5 to 2 µM | –
16 | Cc1cc2cnc(NC3CCN(S(=O)(=O)C4CC4)CC3)nc2c(N2CC(F)(F)C3(CNC3)C2)n1 [Example 62, N-(1-(cyclopropylsulfonyl)piperidin-4-yl)-8-(8,8-difluoro-2,6-diazaspiro[3.4]octan-6-yl)-6-methylpyrido[3,4-d]pyrimidin-2-amine] | < 0.2 µM | < 0.2 µM | < 0.2 µM | < 0.2 µM | 0.5 to 2 µM | 0.5 to 2 µM | –
17 | Cc1cc2cnc(N[C@H]3CC[C@H](CN(C)C)CC3)nc2c(N2CCC3(C2)CC3(F)F)n1 (stereo partly drawn) [Compound 40, 8-(1,1-difluoro-5-azaspiro[2.4]heptan-5-yl)-N-((1r,4r)-4-((dimethylamino)methyl)cyclohexyl)-6-methylpyrido[3,4-d]pyrimidin-2-amine] | > 2 µM | < 0.2 µM | < 0.2 µM | < 0.2 µM | 0.5 to 2 µM | 0.5 to 2 µM | –
18 | Cc1cc2cnc(NC3CCN(S(C)(=O)=O)CC3)nc2c(N2CCC3(CC3)C2)n1 [Compound 54, 6-methyl-N-(1-(methylsulfonyl)piperidin-4-yl)-8-(5-azaspiro[2.4]heptan-5-yl)pyrido[3,4-d]pyrimidin-2-amine] | < 0.2 µM | < 0.2 µM | < 0.2 µM | < 0.2 µM | > 2 µM | 0.5 to 2 µM | –
19 | Cc1cc2cnc(NC3CCN(S(=O)(=O)C4CC4)CC3)nc2c(N2CC3(C2)CN(C2CC2)C3)n1 [Compound 48, 8-(6-cyclopropyl-2,6-diazaspiro[3.3]heptan-2-yl)-N-(1-(cyclopropylsulfonyl)piperidin-4-yl)-6-methylpyrido[3,4-d]pyrimidin-2-amine] | 0.5 to 2 µM | < 0.2 µM | < 0.2 µM | 0.2 to 0.5 µM | > 2 µM | > 2 µM | –
